Measurements: US10941137B2, “Difluoromethyl-phenyl triazoles” (Boehringer Ingelheim International GmbH, priority 2018, dated 2021)

Target: T1, α5β2γ2 GABAA receptor (Homo sapiens, UniProt P18507+P31644)
T1 sequence (P31644 32-462): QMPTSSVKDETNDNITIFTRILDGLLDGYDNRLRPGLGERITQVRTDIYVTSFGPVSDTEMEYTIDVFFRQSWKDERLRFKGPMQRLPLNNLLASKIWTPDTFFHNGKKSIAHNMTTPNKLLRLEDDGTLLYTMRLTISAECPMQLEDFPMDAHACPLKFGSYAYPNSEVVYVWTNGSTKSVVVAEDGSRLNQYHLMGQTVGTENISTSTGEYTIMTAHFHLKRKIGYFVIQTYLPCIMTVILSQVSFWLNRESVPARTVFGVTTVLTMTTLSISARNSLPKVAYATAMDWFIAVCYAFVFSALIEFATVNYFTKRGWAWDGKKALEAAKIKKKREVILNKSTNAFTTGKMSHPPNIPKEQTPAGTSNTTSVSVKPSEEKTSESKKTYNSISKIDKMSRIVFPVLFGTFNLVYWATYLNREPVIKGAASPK
T1 sequence (P18507 40-376 limits assumed): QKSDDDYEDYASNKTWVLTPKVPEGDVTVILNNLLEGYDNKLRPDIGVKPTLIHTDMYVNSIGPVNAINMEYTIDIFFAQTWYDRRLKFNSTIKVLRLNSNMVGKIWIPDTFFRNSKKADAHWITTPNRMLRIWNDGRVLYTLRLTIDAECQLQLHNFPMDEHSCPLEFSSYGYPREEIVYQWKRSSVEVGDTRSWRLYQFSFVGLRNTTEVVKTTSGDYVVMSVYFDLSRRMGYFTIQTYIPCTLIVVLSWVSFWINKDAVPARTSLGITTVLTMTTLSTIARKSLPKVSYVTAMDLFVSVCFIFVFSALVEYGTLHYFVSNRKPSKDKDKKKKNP
Test: Assay B: modulation of α5β2γ2 GABAA receptor, two-electrode voltage clamp in oocytes
Format: cell-based
Details: for EC50: oocytes, TEVC, co-application with GABA 0.5 μM (EC5-20), read-out: Assay B: GABAA α5β3γ2 EC50
Description: Assay B: In vitro evaluation of modulation of α5β2γ2 GABAA receptor.
Modulatory efficacy of compounds of formula (I) is determined electrophysiological recordings in oocytes using the two-electrode voltage clamp (TEVC) technique. Oocytes are injected with cRNA for human GABAA receptor subunits α5, β2 and γ2 in a 3:1:3 ratio and modulatory efficacy is evaluated by co-applications with a submaximal EC5-20 GABA concentration (0.5 μM) termed GABA control. As a standard, the compounds are tested in five concentrations (3.16, 0.316, 0.0316, 0.00316 and 0.000316 μM) on each oocyte starting with the lowest concentration. Background subtracted peak current amplitudes are normalized to the respective GABA control current, converted to % change and depicted +/−S.E.M. as a function of increasing compound concentrations. Plotted datapoints are fitted to the empirical Hill equation using non-linear regression. 95% confidence intervals for maximal efficacy (Bottom) and potency (Log EC50) are derived from this fitting routine.

Assay B: GABAA α5β3γ2 Emax vs GABA [%]	EC50 [nM]	Compound
-57	6	Cc1nnn(-c2ccc(C(F)F)cc2)c1COc1ccc(-c2ccnc(O)c2)nn1 [Example 2, 4-[6-({1-[4-(difluoromethyl)phenyl]-4-methyl-1H-1,2,3-triazol-5-yl}methoxy)pyridazin-3-yl]pyridin-2-ol]
-44.3	13.5	COc1ncc(-c2ccc(OCc3c(C)nnn3-c3ccc(C(F)F)cc3)nn2)cn1 [Example 3]
-41.5	22.8	Cc1nnn(-c2ccc(C(F)F)cc2)c1COc1ccc(-c2cnc(OCC(C)(C)O)nc2)nn1 [Example 4]
-37.7	5.8	Cc1nnn(-c2ccc(C(F)F)cc2)c1COc1ccc(-c2cnn(C)c2)nn1 [Example 5]
-33.3	6.9	Cc1ncc(-c2ccc(OCc3c(C)nnn3-c3ccc(C(F)F)cc3)nn2)o1 [Example 6]
-32	6	CCn1cc(-c2ccc(OCc3c(C)nnn3-c3ccc(C(F)F)cc3)nn2)cn1 [Example 7]
-19.5	17	Cc1nnn(-c2ccc(C(F)F)cc2)c1COc1ccc(-c2cncc(-n3ccnc3)c2)nn1 [Example 8]
-12	47.5	Cc1nnn(-c2ccc(C(F)F)cc2)c1COc1ccc(-c2cnn(C3CC3)c2)nn1 [Example 9]
-17.6	10.3	Cc1cc(-c2ccc(OCc3c(C)nnn3-c3ccc(C(F)F)cc3)nn2)cnn1 [Example 11]
-26	13	Cc1n[nH]c(C)c1-c1ccc(OCc2c(C)nnn2-c2ccc(C(F)F)cc2)nn1 [Example 12, 3-({1-[4-(difluoromethyl)phenyl]-4-methyl-1H-1,2,3-triazol-5-yl}methoxy)-6-(3,5-dimethyl-1H-pyrazol-4-yl)pyridazine]
-47.3	2.3	CNC(=O)c1cn(-c2ccc(OCc3c(C)nnn3-c3ccc(C(F)F)cc3)nn2)cn1 [Example 14]
-42.5	1.4	Cc1nnn(-c2ccc(C(F)F)cc2)c1COc1ccc(-n2cnc(C(F)F)c2)nn1 [Example 15]
-23	1.7	Cc1nnn(-c2ccc(C(F)F)cc2)c1COc1ccc(-n2cnc(C=O)c2)nn1 [Example 17]
-27.5	3.7	Cc1nnn(-c2ccc(C(F)F)cc2)c1COc1ccc(-n2cnc(Cl)c2)nn1 [Example 18]
-25	7.7	Cc1nnn(-c2ccc(C(F)F)cc2)c1COc1ccc(-n2cnc(S(C)(=O)=O)c2)nn1 [Example 19]
-19.7	4.4	Cc1nnn(-c2ccc(C(F)F)cc2)c1COc1ccc(-n2ccc(C#N)n2)nn1 [Example 20]

Assay B: GABAA α5β3γ2 Emax vs GABA [%]	EC50 [nM]	Compound
2		Cc1nnn(-c2ccc(C(F)F)cc2)c1COc1ccc(-n2ccc(C(N)=O)n2)nn1 [Example 21]
-17.3	0.5	Cc1nnn(-c2ccc(C(F)F)cc2)c1COc1ccc(-c2cncnc2)nn1 [Example 22]
-9	76.9	Cc1nnn(-c2ccc(C(F)F)cc2)c1COc1ccc(-n2ccc(C(F)(F)F)n2)nn1 [Example 24]
-0.7		Cc1nnn(-c2ccc(C(F)F)cc2)c1COc1ccc(-n2cc(C(F)(F)F)cn2)nn1 [Example 25]
-27	3.4	Cc1nnn(-c2ccc(C(F)F)cc2)c1COc1ccc(-n2cc3c(n2)CCNC3=O)nn1 [Example 26]
-35.2	0.4	Cc1nnn(-c2ccc(C(F)F)cc2)c1COc1ccc(-n2cnc(C(N)=O)c2)nn1 [Example 27, 1-[6-({1-[4-(difluoromethyl)phenyl]-4-methyl-1H-1,2,3-triazol-5-yl}methoxy)pyridazin-3-yl]-1H-imidazole-4-carboxamide]
-29	1.8	COC(=O)c1cn(-c2ccc(OCc3c(C)nnn3-c3ccc(C(F)F)cc3)nn2)cn1 [Example 29]
-23	7.4	Cc1nnn(-c2ccc(C(F)F)cc2)c1COc1ccc(-n2cc(C#N)cn2)nn1 [Example 31]
-22.8	5.7	CC(=O)c1cn(-c2ccc(OCc3c(C)nnn3-c3ccc(C(F)F)cc3)nn2)cn1 [Example 32]
-22	11.2	Cc1ncn(-c2ccc(OCc3c(C)nnn3-c3ccc(C(F)F)cc3)nn2)n1 [Example 33]
-21.7	2.1	Cc1nnn(-c2ccc(C(F)F)cc2)c1COc1ccc(-n2cnc(CN)c2)nn1 [Example 35, {1-[6-({1-[4-(difluoromethyl)phenyl]-4-methyl-1H-1,2,3-triazol-5-yl}methoxy)pyridazin-3-yl]-1H-imidazol-4-yl}methanamine]
-28.2	4.7	Cc1nnn(-c2ccc(C(F)F)cc2)c1COc1ccc(-n2cnc(C(=O)O)c2)nn1 [Example 37, 1-[6-({1-[4-(difluoromethyl)phenyl]-4-methyl-1H-1,2,3-triazol-5-yl}methoxy)pyridazin-3-yl]-1H-imidazole-4-carboxylic acid]
-23	1.7	Cc1nnn(-c2ccc(C(F)F)cc2)c1COc1ccc(-n2cnc(CO)c2)nn1 [Example 38, {1-[6-({1-[4-(difluoromethyl)phenyl]-4-methyl-1H-1,2,3-triazol-5-yl}methoxy)pyridazin-3-yl]-1H-imidazol-4-yl}methanol]
-17.3	1.8	Cc1nnn(-c2ccc(C(F)F)cc2)c1COc1ccc(-n2cnc(C(C)(C)O)c2)nn1 [Example 39, 2-{1-[6-({1-[4-(difluoromethyl)phenyl]-4-methyl-1H-1,2,3-triazol-5-yl}methoxy)pyridazin-3-yl]-1H-imidazol-4-yl}propan-2-ol]
-17	1.9	Cc1nnn(-c2ccc(C(F)F)cc2)c1COc1ccc(-n2cnc(C(C)O)c2)nn1 (centres unmarked) [Example 40]

Compound	Assay B: GABAA α5β3γ2 Emax vs GABA [%]	EC50 [nM]
Cc1nnn(-c2ccc(C(F)F)cc2)c1COc1ccc(-n2cnc(C[N+](C)(C)C)c2)nn1.O=C([O-])C(F)(F)F [Example 36, ({1-[6-({1-[4-(difluoromethyl)phenyl]-4-methyl-1H-1,2,3-triazol-5-yl}methoxy)pyridazin-3-yl]-1H-imidazol-4-yl}methyl)trimethylazanium trifluoroacetate]	-31.5	6.2
